What was measured:
[1] = Drug recovery in bile duct cannulated single po dosed rhesus monkey assessed as recovered total bile radioactivity; format: ADME, organism-based, Macaca mulatta; details: in vivo
[2] = Cmax in WH rat at 2 mg/kg, po; format: ADME, organism-based; design: route oral, dose 2 mg/kg; details: in vivo
[3] = Drug recovery in bile duct cannulated single iv dosed WH rat assessed as recovered total bile radioactivity; format: ADME, organism-based; details: in vivo
[4] = AUC (0 to infinitive) in rhesus monkey at 2 mg/kg, po; format: ADME, organism-based, Macaca mulatta; design: route oral, time infinity, dose 2 mg/kg; details: in vivo
[5] = Oral bioavailability in fasted dog at 1 mg/kg in 0.5% methocel; format: ADME, organism-based, Canis lupus familiaris; details: in vivo
[6] = Drug recovery in bile duct cannulated single po dosed rhesus monkey assessed as recovered parent compound in plasma measured at 24 hrs relative to total recovery; format: ADME, organism-based, Macaca mulatta; details: in vivo
[7] = Cmax in fasted dog at 1 mg/kg, po in Imwitor/Tween; format: ADME, organism-based, Canis lupus familiaris; design: route oral, dose 1 mg/kg; details: in vivo
[8] = Cmax in high fat diet fed dog at 1 mg/kg, po in 0.5% methocel; format: ADME, organism-based, Canis lupus familiaris; design: route oral, dose 1 mg/kg; details: in vivo
[9] = Volume of distribution at steady state in rhesus monkey at 0.5 mg/kg, iv; format: ADME, organism-based, Macaca mulatta; details: in vivo, read-out: Vdss
[10] = Drug recovery in bile duct cannulated single po dosed rhesus monkey assessed as recovered total urine radioactivity; format: ADME, organism-based, Macaca mulatta; details: in vivo
[11] = Tmax in CD1 mouse at 2 mg/kg, po; format: ADME, organism-based; details: in vivo
[12] = Cmax in CD1 mouse at 2 mg/kg, po; format: ADME, organism-based; design: route oral, dose 2 mg/kg; details: in vivo
[13] = MRT in CD1 mouse at 1 mg/kg, iv and 2 mg/kg, po; format: ADME, organism-based; details: in vivo
[14] = AUC (0 to infinitive) in CD1 mouse at 2 mg/kg, po; format: ADME, organism-based; design: route oral, time infinity, dose 2 mg/kg; details: in vivo
[15] = Normalized AUC (0 to 72 hrs) in high fat diet fed dog at 1 mg/kg, po in Imwitor/Tween; format: ADME, organism-based, Canis lupus familiaris; details: in vivo
[16] = Tmax in rhesus monkey at 2 mg/kg, po; format: ADME, organism-based, Macaca mulatta; details: in vivo
[17] = Drug recovery in bile duct cannulated single po dosed rhesus monkey assessed as recovered glucuronide conjugate in feces relative to total recovery; format: ADME, organism-based, Macaca mulatta; details: in vivo
[18] = Half life in DIO wild type mouse adipose tissue at 10 mg/kg, po qd treated for 40 days; format: ADME, organism-based; details: time 40 day
[19] = Oral bioavailability in high fat diet fed dog at 1 mg/kg in 0.5% methocel; format: ADME, organism-based, Canis lupus familiaris; details: in vivo
[20] = Cmax in fasted dog at 1 mg/kg, po in 0.5% methocel; format: ADME, organism-based, Canis lupus familiaris; design: route oral, dose 1 mg/kg; details: in vivo
[21] = Drug recovery in bile duct cannulated single po dosed rhesus monkey assessed as recovered total feces radioactivity; format: ADME, organism-based, Macaca mulatta; details: in vivo
[22] = Drug recovery in bile duct cannulated single po dosed rhesus monkey assessed as recovered parent compound in urine relative to total recovery; format: ADME, organism-based, Macaca mulatta; details: in vivo
[23] = Oral bioavailability in fasted dog at 1 mg/kg in Imwitor/Tween; format: ADME, organism-based, Canis lupus familiaris; details: in vivo
[24] = Drug recovery in bile duct cannulated single iv dosed WH rat assessed as recovered parent compound in feces relative to total recovery; format: ADME, organism-based; details: in vivo
[25] = Drug recovery in bile duct cannulated single po dosed WH rat assessed as recovered taurine conjugate in bile relative to total recovery; format: ADME, organism-based; details: in vivo
[26] = Half life in NFR-transgenic mouse plasma at 10 mg/kg, po single dose; format: ADME, organism-based
[27] = Terminal half life in WH rat at 1 mg/kg, iv; format: ADME, organism-based; details: in vivo, read-out: beta t1/2 (converted)
[28] = MRT in WH rat at 1 mg/kg, iv; format: ADME, organism-based; details: in vivo
[29] = Drug recovery in bile duct cannulated single po dosed rhesus monkey assessed as recovered taurine conjugate in bile relative to total recovery; format: ADME, organism-based, Macaca mulatta; details: in vivo
[30] = MRT in […] rhesus monkey at 0.5 mg/kg, iv; format: ADME, organism-based, Macaca mulatta; details: in vivo
[31] = Half life in lean NFR-transgenic mouse liver at 10 mg/kg, po qd treated for 40 days; format: ADME, organism-based; details: time 40 day
[32] = Terminal half life in DIO NFR-transgenic mouse adipose tissue at 10 mg/kg, po once daily for 14 days; format: ADME, organism-based; details: time 14 day, read-out: beta t1/2 (converted)
[33] = Normalized AUC (0 to 72 hrs) in fasted dog at 1 mg/kg, po in Imwitor/Tween; format: ADME, organism-based, Canis lupus familiaris; details: in vivo
[34] = Clearance in CD1 mouse at 1 mg/kg, iv and 2 mg/kg, po; format: ADME, organism-based; details: in vivo
[35] = AUC (0 to infinitive) in WH rat at 2 mg/kg, po; format: ADME, organism-based; design: route oral, time infinity, dose 2 mg/kg; details: in vivo
[36] = Drug recovery in bile duct cannulated single po dosed rhesus monkey assessed as recovered parent compound in feces relative to total recovery; format: ADME, organism-based, Macaca mulatta; details: in vivo
[37] = Drug recovery in bile duct cannulated single iv dosed WH rat assessed as recovered glucuronide conjugate in plasma measure at 2 hrs relative to total recovery; format: ADME, organism-based; details: in vivo
[38] = Drug recovery in bile duct cannulated single po dosed WH rat assessed as recovered glucuronide conjugate in bile relative to total recovery; format: ADME, organism-based; details: in vivo
[39] = Drug recovery in bile duct cannulated single iv dosed WH rat assessed as recovered parent compound in plasma measure at 24 hrs relative to total recovery; format: ADME, organism-based; details: in vivo
[40] = Drug recovery in bile duct cannulated single po dosed WH rat assessed as recovered total bile radioactivity; format: ADME, organism-based; details: in vivo
[41] = Oral bioavailability in high fat diet fed dog at 1 mg/kg in Imwitor/Tween; format: ADME, organism-based, Canis lupus familiaris; details: in vivo
[42] = Dose normalized AUC in CD1 mouse at 1 mg/kg, iv and 2 mg/kg, po; format: ADME, organism-based; details: in vivo
[43] = Tmax in WH rat at 2 mg/kg, po; format: ADME, organism-based; details: in vivo
[44] = Half life in lean wild type mouse liver at 10 mg/kg, po qd treated for 40 days; format: ADME, organism-based; details: time 40 day
[45] = Terminal half life in DIO NFR-transgenic mouse plasma at 10 mg/kg, po once daily for 14 days; format: ADME, organism-based; details: time 14 day, read-out: beta t1/2 (converted)
[46] = Plasma clearance in WH rat at 1 mg/kg, iv; format: ADME, organism-based
[47] = AUC (0 to infinitive) in Beagle dog at 2 mg/kg, po; format: ADME, organism-based, Canis lupus familiaris; design: route oral, time infinity, dose 2 mg/kg; details: in vivo
[48] = Oral bioavailability in Beagle dog at 2 mg/kg; format: ADME, organism-based, Canis lupus familiaris; details: in vivo
[49] = Half life in DIO wild type mouse liver at 10 mg/kg, po qd treated for 40 days; format: ADME, organism-based; details: time 40 day
[50] = Drug recovery in bile duct cannulated single po dosed rhesus monkey assessed as recovered glucuronide conjugate in bile relative to total recovery; format: ADME, organism-based, Macaca mulatta; details: in vivo
[51] = Volume of distribution at steady state in CD1 mouse at 1 mg/kg, iv and 2 mg/kg, po; format: ADME, organism-based; details: in vivo, read-out: Vdss
[52] = Drug recovery in bile duct cannulated single po dosed WH rat assessed as recovered total feces radioactivity; format: ADME, organism-based; details: in vivo
[53] = Terminal half life in rhesus monkey at 0.5 mg/kg, iv; format: ADME, organism-based, Macaca mulatta; details: in vivo, read-out: beta t1/2 (converted)
[54] = Oral bioavailability in CD1 mouse at 2 mg/kg; format: ADME, organism-based; details: in vivo
[55] = Drug recovery in bile duct cannulated single po dosed WH rat assessed as recovered parent compound in bile relative to total recovery; format: ADME, organism-based; details: in vivo
[56] = Half life in lean NFR-transgenic mouse plasma at 10 mg/kg, po qd treated for 40 days; format: ADME, organism-based; details: time 40 day
[57] = Oral bioavailability in rhesus monkey at 2 mg/kg; format: ADME, organism-based, Macaca mulatta; details: in vivo
[58] = Terminal half life in CD1 mouse at 1 mg/kg, iv; format: ADME, organism-based; details: in vivo, read-out: beta t1/2 (converted)
[59] = Cmax in rhesus monkey at 2 mg/kg, po; format: ADME, organism-based, Macaca mulatta; design: route oral, dose 2 mg/kg; details: in vivo
[60] = Drug recovery in bile duct cannulated single iv dosed WH rat assessed as recovered total feces radioactivity; format: ADME, organism-based; details: in vivo

Drug recovery [1]: > 99%
Cmax [2]: 400 nM
Drug recovery [3]: 67%
AUC(0-inf) [4]: 11 µM·h
bioavailability [5]: 14%
Drug recovery [6]: > 99%
Cmax [7]: 1500 nM
Cmax [8]: 300 nM
Vd [9]: 1.3 L/kg
Drug recovery [10]: 7%
Tmax [11]: 2.7 h
Cmax [12]: 430 nM
MRT [13]: 6 h
AUC(0-inf) [14]: 7.9 µM·h
AUC/dose [15]: 22 µM·kg·h/mg
Tmax [16]: 6.7 h
Drug recovery [17]: 5%
half-life [18]: 86.4 h
bioavailability [19]: 9%
Cmax [20]: 500 nM
Drug recovery [21]: 60%
Drug recovery [22]: > 99%
bioavailability [23]: 53%
Drug recovery [24]: > 98%
Drug recovery [25]: 0%
half-life [26]: 12 h
half-life [27]: 8.1 h
MRT [28]: 13 h
Drug recovery [29]: 3%
MRT [30]: 60 h
half-life [31]: 69.6 h
half-life at […] [32]: 2.8 h
AUC/dose [33]: 24 µM·kg·h/mg
clearance [34]: 2.6 mL/min/kg
AUC(0-inf) [35]: 9.7 µM·h
Drug recovery [36]: 95%
Drug recovery [37]: < 4%
Drug recovery [38]: > 98%
Drug recovery [39]: > 99%
Drug recovery [40]: > 99%
bioavailability [41]: 48%
AUC/dose [42]: 9.2 µM·h
Tmax [43]: 4 h
half-life [44]: 1.5 h
half-life at […] [45]: 3.8 h
clearance [46]: 3.1 mL/min/kg
AUC(0-inf) [47]: 13 µM·h
bioavailability [48]: 14%
half-life [49]: 76.8 h
Drug recovery [50]: > 96%
Vd [51]: 0.95 L/kg
Drug recovery [52]: 46%
half-life [53]: 50 h
bioavailability [54]: 43%
Drug recovery [55]: < 2%
half-life [56]: 288 h
bioavailability [57]: 8.4%
half-life [58]: 4.4 h
Cmax [59]: 220 nM
Drug recovery [60]: 15%
SMILES: COc1ncc(-c2ccc(C(=O)O)cc2C)cc1-c1ccc(C(F)(F)F)cc1[C@@H]1CC[C@H]2[C@@H](c3cc(C(F)(F)F)cc(C(F)(F)F)c3)OC(=O)N12
